Patent publication US20140154702A1, “Methods For Treating Cancer Using Combination Therapies” (ENDOCYTE, INC., priority 2012, published 2014)
Entries after “also recorded” stand apart in the source; their conditions may differ. Like-named read-outs stand apart in the source and are kept apart here.

How the values were obtained:
Assay type in all cases: cell-based
[1] = tested on: KB cells; test: Inhibition of non-FR-specific activity (cytotoxicity) of EC0531 by co-administered inhibitors, KB cells; settings: for IC50: read-out: IC50 of inhibition of non-FR-specific activity of EC0531
Description: Extracellular thiol activity was determined using the DTNB method described above. […] Cells were seeded in 24-well tissue culture-treated plates at 1×10^5 cells per well and allowed to attach overnight at 37° C. […] To assess non-FR-targeted activity in FR+cells, 100 μM FA was included as a competitor along with the drug in the treatment solutions. Cells were incubated for 2 hours in the presence of drug, washed 3 times with media, and then chased in 0.5 mL of FDRPMI/HIFBS (FR+cells) or RPMI+FA/HIFBS (FR−cells) to 72 h at 37° C. Spent medium was then aspirated from the wells, and cells were incubated with 1 μCi/mL ^3H-thymidine for 4 hours at 37° C., washed two times with PBS, pH 7.4, then treated with 0.4 mL 5% trichloroacetic acid per well. After 15 minutes, the trichloroacetic acid was aspirated from the wells, and cells were solubilized in 0.5 mL 0.25 N sodium hydroxide. Each sample (450 μL) was transferred to a scintillation vial containing 3 mL of Ecolite+scintillation cocktail and then counted in a liquid scintillation counter (LSC). Final results were expressed as percentage of ^3H-thymidine incorporation relative to an untreated control (non-competed groups) or FA control (competed groups).
The inhibition of non-FR-specific activity (i.e., cytotoxicity) was evaluated for each thiol inhibitor.
Cells were seeded in 24-well tissue culture-treated plates at 1×10^5 cells per well and allowed to attach overnight at 37° C. […] Cells were incubated for 2 hours in the presence of drug, competitor, and inhibitor, washed 3 times with media, and then chased in 0.5 mL of FDRPMI/HIFBS to 72 hours at 37° C. Cells were then treated as described above to determine ^3H-thymidine incorporation. Final results were expressed as percentage of ^3H-thymidine incorporation relative to an untreated control (non-competed groups) or FA control (competed groups).
The inhibition of non-FR-specific activity (i.e., cytotoxicity) was evaluated. KB cells were seeded in 24-well tissue culture-treated plates at 1×10^5 cells per well in FDRPMI/HIFBS and allowed to attach to the plates overnight at 37° C. […] Cells were incubated for 2 hours in the presence of drug, FA competitor, and inhibitor, washed 3 times with media, then chased in 0.5 mL of FDRPMI/HIFBS to 72 hours at 37° C. Cells were then treated as described above to determine ^3H-thymidine incorporation. Final results were expressed as percentage of ^3H-thymidine incorporation relative to an untreated control (non-competed groups) or FA control (competed groups). […]

[2] = tested on: A549 cells; test: Extracellular thiol activity (DTNB method), A549 cells; settings: for effect of added thiol on extracellular thiol activity (SH concentration): added to SH-free RPMI: GSSG (1.6 μM), cysteine (189 μM), 2 hours, FIG. 11; for effect on release of extracellular thiols (SH concentration): glutamate (5 mM), quisqualic acid (0.3 mM and 1 mM), 2 hours at 37° C., FIG. 12
[3] = tested on: A549 cells; test: 3H-EC0531 uptake study, A549 cells; settings: for effect of inhibitor on nonspecific uptake of 3H-EC0531: 1 μM EC0531 plus inhibitor, 2 hours at 37° C.
Description: (§1) To determine non-FR-targeted uptake, 100 μM FA was included in the uptake solutions. Cells were incubated with 0.5 mL of uptake solution for 2 h at 37° C., washed 3 times with ice-cold PBS, and were solubilized in 0.5 mL 1% SDS in PBS, pH 7.4. Cell lysates (450 μL) were added to 3 mL Ecolite+scintillation cocktail and counted in a liquid scintillation counter. Protein concentrations of the remaining lysates were determined using the BCA Protein Assay (Pierce, Rockford, Ill.). Molecules per cell were calculated based on DPM values and previously determined cellular protein conversion factors (2.82×10^−7 and 2.23×10^−7 mg protein per cell for KB and A549, respectively).
(§2) FA at a concentration of 100 μM was used as a competitor to determine non-FR-specific uptake in KB cells. Wells were then washed 3 times with 1 mL of ice-cold PBS, pH 7.4 and were processed for LSC analysis as described above.
(§3) Wells were then washed 3 times with 1 mL of ice-cold PBS, pH 7.4 and were processed for LSC analysis as described above.

[4] = tested on: KB cells; test: 3H-EC0531 uptake study, KB cells; settings: for effect of inhibitor on nonspecific uptake of 3H-EC0531: 1 μM EC0531 plus inhibitor, 100 μM FA, 2 hours at 37° C.
Description: as §1, §2, §3

[5] = tested on: KB cells; test: Inhibition of non-FR-specific activity (cytotoxicity) of EC0531 by co-administered inhibitors, KB cells; settings: KB cells pre-treated with inhibitor prior to EC0531 and folic acid; DTNB (100 μM), NCEM (10 mM); FIG. 6
[6] = tested on: A549 cells; test: Inhibition of non-FR-specific activity (cytotoxicity) of EC0531 by co-administered inhibitors, A549 cells; settings: sulfasalazine (1 mM), glutamate (5 mM) with increasing EC0531, 2 hours, chase to 72 hours, FIG. 14
Description: Cells were then treated as described above to determine ^3H-thymidine incorporation. The inhibition of non-FR-specific activity (i.e., cytotoxicity) was evaluated for each system xc^− inhibitor.

[7] = DTNB 10 μM and 100 μM, excess folic acid, FIG. 8
[8] = KB cells, co-administered with EC0531 (1 μM) and folic acid (100 μM)
[9] = inhibitor concentration 3 mM, co-administration with EC0531
[10] = inhibitor concentration 100 μM, co-administration with EC0531
[11] = KB cells, co-administered with EC0531 (1 μM) and folic acid (100 μM), 2 hours, 72 hour chase

O=C1OC(c2ccc(O)c(S(=O)(=O)O)c2)(c2ccc(O)c(S(=O)(=O)O)c2)c2c(Br)c(Br)c(Br)c(Br)c21 [BSP]
Inhibition of EC0531 Nonspecific Activity [1]: <50% inhibition

N[C@@H](CS)C(=O)O [Cysteine, cysteine]
effect of added thiol on extracellular thiol activity (SH concentration) [2]: responsible for stimulation

O=S(=O)(O)c1cc(N=C=S)ccc1C=Cc1ccc(N=C=S)cc1S(=O)(=O)O [DIDS]
effect of inhibitor on nonspecific uptake of 3H-EC0531 [3]: reduced
effect of inhibitor on nonspecific uptake of 3H-EC0531 [4]: reduced
Inhibition of EC0531 Nonspecific Activity [1]: Full inhibition

O=C(O)c1cc(SSc2ccc([N+](=O)[O-])c(C(=O)O)c2)ccc1[N+](=O)[O-] [DTNB, 5,5′-dithiobis(2-nitrobenzoic acid)]
effect of inhibitor on nonspecific uptake of 3H-EC0531 [3]: reduced
effect of inhibitor on nonspecific uptake of 3H-folic acid [3, 7]: mostly unaffected
effect of inhibitor on nonspecific uptake of 3H-EC0531 [4]: reduced
effect of inhibitor on nonspecific uptake of 3H-folic acid [4, 7]: mostly unaffected
inhibition of non-FR-specific activity of EC0531 by pre-treatment of cells [5]: not effective
inhibition of non-FR-specific activity of EC0531 (in words) [1, 8]: dose-responsive inhibition
Inhibition of EC0531 Nonspecific Activity ([1]; inhibitor concentration 10 μM, co-administration with EC0531): Full inhibition
IC50 [1]: 4.6 µM

O=S(=O)([O-])CCSSCCS(=O)(=O)[O-].[Na+].[Na+] [Dimesna, 2,2′-dithio-bis-ethanesulfonate]
Inhibition of EC0531 Nonspecific Activity [1]: Full inhibition

N[C@@H](CCC(=O)N[C@@H](CSCC(=O)Nc1ccc([As](O)O)cc1)C(=O)NCC(=O)O)C(=O)O [EC1277 (GSAO), 4-(N—(S-glutathionylacetyl)amino) phenylarsonous acid]
Inhibition of EC0531 Nonspecific Activity [1, 9]: Full inhibition

O=C(O[C@@H]1Cc2c(O)cc(O)cc2O[C@@H]1c1cc(O)c(O)c(O)c1)c1cc(O)c(O)c(O)c1 [EGCg, epigallocatechin gallate]
Inhibition of EC0531 Nonspecific Activity ([1]; 100 µM): >50% inhibition

O=C(O)CCN1C(=O)C=CC1=O [NCEM, N-(2-carboxyethyl)maleimide]
effect of inhibitor on nonspecific uptake of 3H-EC0531 [3]: reduced
effect of inhibitor on nonspecific uptake of 3H-EC0531 [4]: reduced
inhibition of non-FR-specific activity of EC0531 by pre-treatment of cells [5]: not effective
inhibition of non-FR-specific activity of EC0531 (in words) [1, 8]: dose-responsive inhibition
Inhibition of EC0531 Nonspecific Activity [1, 10]: Full inhibition
IC50 [1, 11]: 17 µM

N[C@@H](CCC(=O)O)C(=O)O [glutamate]
effect on release of extracellular thiols (SH concentration) [2]: significantly reduce
inhibition of non-FR-specific activity of EC0531 (in words) [6]: inhibit

CN(Cc1cnc2nc(N)nc(N)c2n1)c1ccc(C(=O)N[C@@H](CCC(=O)O)C(=O)O)cc1 [methotrexate]
effect of inhibitor on nonspecific uptake of 3H-EC0531 [3]: ineffective
effect of inhibitor on nonspecific uptake of 3H-EC0531 [4]: ineffective

O=S(=O)([O-])c1cc[c]([Hg][Cl])cc1 [pCMBS, p-chloromercuribenzene sulfonate]
Inhibition of EC0531 Nonspecific Activity [1, 10]: >50% inhibition

N[C@@H](Cn1oc(=O)[nH]c1=O)C(=O)O [quisqualic acid]
effect on release of extracellular thiols (SH concentration) [2]: significantly reduce; also recorded: dose-dependent reduction

O=C(O)c1cc(/N=N/c2ccc(S(=O)(=O)Nc3ccccn3)cc2)ccc1O [sulfasalazine]
effect of inhibitor on nonspecific uptake of 3H-EC0531 [3]: reduced
inhibition of non-FR-specific activity of EC0531 (in words) [6]: inhibit; also recorded: greater inhibition
effect of inhibitor on nonspecific uptake of 3H-EC0531 [4]: reduced
inhibition of non-FR-specific activity of EC0531 (in words) [1, 8]: dose-responsive inhibition
IC50 [1, 11]: 170 µM

folate-maleimide
inhibition of non-FR-specific activity of EC0531 (in words) [1, 8]: dose-responsive inhibition
Inhibition of EC0531 Nonspecific Activity [1, 10]: Full inhibition
IC50 [1, 11]: 3.5 µM

methoxy-PEG5000-vinylsulfone
Inhibition of EC0531 Nonspecific Activity [1, 9]: >50% inhibition

oxidized glutathione [GSSG]
effect of added thiol on extracellular thiol activity (SH concentration) [2]: no effect
Inhibition of EC0531 Nonspecific Activity [1]: Full inhibition
